Measurements reported in patent US20220249511A1, “METHODS FOR THE TREATMENT OF KELOID, HYPERTROPHIC SCARS AND/OR HYPERPIGMENTATION DISORDERS” (INSERM (INSTITUT NATIONAL DE LA SANTÉ ET DE LA RECHERCHE …, priority 2019, published 2022).

How the values were obtained:
Tgfβ mRNA [1] = test: Tgfβ mRNA expression in primary fibroblasts derived from pathological scars; type: cell-based, human; settings: exposed 24 h, vs DMSO, FIG. 3C
Experimental: (§1) Skin samples (hypertrophic, keloids and burn scars) were collected during surgical procedures. To generate dermal fibroblast cultures, skin samples were minced and incubated at room temperature in 0.05% trypsin-EDTA (ThermoFisher) solution for 30 min with gentle shaking. Cells were collected by centrifuging at 700 g for 10 min, resuspended in cell culture media containing 25% FBS, and plated onto 24 well plates to establish lines. Fibroblast cultures were grown and maintained in 1× MEM (Corning) supplemented with 25% FBS and penicillin/streptomycin (Corning) to a final concentration of 100 IU penicillin and 500 μg.mL-1 streptomycin.
(§2) Cells at similar population doubling were plated 1:4 from confluent cultures and allowed to grow until ˜80% confluent. Cells were then starved during 12 hours and exposed during 24 h to either BYL719 (0.1 or 1 μmol.L-1; MedChem Express), taselisib (0.1 or 2. μmol.L-1; MedChem Express) or miransertib (0.1 or […]) or equal volume of DMSO. We also performed ex vivo keloid scars culture. Keloids were exposed during 24h to either BYL719 (0.1 or 1 μmol.L-1; MedChem Express) or equal volume of DMSO.
(§3) Total RNA was isolated from snap-frozen kidneys using the TRIzol reagent (Sigma) according to the manufacture's protocol. First-strand cDNA was synthesized using the MML-V reverse transcriptase (Promega, USA). Real-time PCR was performed using the iQ-SYBR Green supermix (BioRad) and the iQ5 Multicolor Real-Time PCR Detection System (BioRad) for mRNA detection. 18S rRNA was used as a house keeping gene.

AKT/mTOR pathway [2] = test: Western blot of P-AKT and P-S6RP in primary fibroblasts derived from pathological scars; type: cell-based, human; settings: starved 12 hours, exposed 24 h, vs DMSO, FIG. 3A
Experimental: as §1, §2
Cultures were rinsed with 1X PBS, treated for 10 min with 0.05% Trypsin, collected by centrifugation at 4° C., and pellets were flash frozen on dry ice. Protein lysates were collected by directly adding 1× RIPA buffer containing protease and phosphatase inhibitors. Each experiment was performed in duplicate and repeated at least three times
Western blots were performed as previously described^31. Briefly, protein extracts from the scars and primary culture of fibroblasts were resolved by SDS-PAGE before being transferred onto the appropriate membrane and incubated with anti-P-AKT (Ser473) antibody (Cell Signaling Technology, ref# 4060), anti-P-S6RP antibody (Cell Signaling Technology, ref# 5364) and anti-GAPDH (Merck Millipore, ref#374), followed by the appropriate peroxidase-conjugated secondary antibody. […]

[3] = tested on: primary fibroblasts derived from pathological scars; test: Proliferation of primary fibroblasts derived from pathological scars; type: cell-based, human; settings: exposed 24 h, vs DMSO, FIG. 3B
Experimental: (§4) Paraffin-embedded kidney sections (4-um) were incubated with anti-P-AKT (Ser473) antibody (Cell Signaling Technology, ref# 4060), anti-P-S6RP antibody (Cell Signaling Technology, ref# 5364), anti-a-smooth muscle cell antibody (Sigma Aldrich, ref# A5228), and anti-KI67 antibody (Thermo Fisher Scientific, ref# RM-9106-51) Immunofluorescence studies were analyzed using a Zeiss LSM 700 confocal microscope.
as §1, §2

keloids = test: Proliferation rate in ex vivo keloid scars culture; type: cell-based, human; settings: ex vivo keloids exposed 24h to 0.1 or 1 μmol.L-1, vs DMSO; FIG. 3E
Experimental: as §4, §2

[4] = tested on: hypertrophic and keloids scars; test: Cohort of PROS patients treated with oral BYL719: hypertrophic and keloid scars; type: in vivo, human; settings: daily dose of 250 mg in adults or 50 mg in children, FIG. 1
Experimental: (§5) The cohort is composed by 19 patients including 15 children (ranging from 4 to 50 years old). Children received 50 mg daily while adults received 250 mg daily. BYL719 was delivered orally every morning with breakfast. Patients were followed at regular intervals:
(§6) weekly for 8 weeks, every two weeks for 1 month and then monthly. All patients underwent clinical examination, and areas of overgrowth, nevi as well as visible scars were photographed before and after BYL719 introduction. All pictures were taken by a single operator, always using the same camera (12-megapixel camera), in the same room and at the same distance. […] Length and surface of the scars were measured using Image J.

Tgfβ mRNA [5] = test: Tgfβ mRNA expression in ex vivo keloid scars culture; type: cell-based, human; settings: ex vivo keloids exposed 24h to 0.1 or 1 μmol.L-1, vs DMSO; FIG. 3F
Experimental: as §2, §3

nevi = test: Cohort of PROS patients treated with oral BYL719: nevus color (visual scale); type: in vivo, human; settings: arbitrary visual scale 5: dark color to 1: normal skin color, FIG. 1
Experimental: as §5, §6
As shown on FIG. 1, inventors have observed that during treatment with oral BYL719, the length, the area and the thickness of the different scars were dramatically reducing without additional treatment. […] Nevus color was evaluated using an arbitrary visual scale ranging from (5: dark color to 1: normal skin color).

burn scar = test: PROS patient treated with oral BYL719: burn scar; type: in vivo, human; settings: one PROS patient with a large burn scar on the left thigh, FIG. 2
Experimental: as §5, §6

AKT/mTOR pathway [6] = test: Western blot of ex vivo keloid scars culture; type: cell-based, human; settings: ex vivo keloids exposed 24h to 0.1 or 1 μmol.L-1, vs DMSO; FIG. 3D
Experimental: as §2
Western blots were performed as previously described^31. Briefly, protein extracts from the scars and primary culture of fibroblasts were resolved by SDS-PAGE before being transferred onto the appropriate membrane and incubated with anti-P-AKT (Ser473) antibody (Cell Signaling Technology, ref# 4060), anti-P-S6RP antibody (Cell Signaling Technology, ref# 5364) and anti-GAPDH (Merck Millipore, ref#374), followed by the appropriate peroxidase-conjugated secondary antibody. Chemiluminescence was acquired using a Fusion FX7 camera (Vilbert Lourmat) and densitometry was performed using the Bio1D software (Certain Tech).

Cc1nc(-c2cn3c(n2)-c2ccc(-c4cnn(C(C)(C)C(N)=O)c4)cc2OCC3)n(C(C)C)n1 [taselisib, Taselisib]
mRNA expression of Tgfβ, a marker of fibrosis (Tgfβ mRNA [1]): reduced
AKT/mTOR pathway (P-AKT and P-S6RP in WB) (AKT/mTOR pathway [2]): efficiently block
proliferation [3]: reduced

Nc1ncccc1-c1nc2ccc(-c3ccccc3)nc2n1-c1ccc(C2(N)CCC2)cc1 [miransertib, Miransertib]
mRNA expression of Tgfβ, a marker of fibrosis (Tgfβ mRNA [1]): reduced
AKT/mTOR pathway (P-AKT and P-S6RP in WB) (AKT/mTOR pathway [2]): efficiently block
proliferation [3]: reduced

Cc1nc(NC(=O)N2CCC[C@H]2C(N)=O)sc1-c1ccnc(C(C)(C)C(F)(F)F)c1 [BYL719, Alpelisib]
proliferation rate (keloids): reduce
length of the hypertrophic and keloids scars [4]: progressive improvement
surface area of the hypertrophic and keloids scars [4]: progressive improvement
thickness of the hypertrophic and keloids scars [4]: progressive improvement
Tgfβ mRNA expression (Tgfβ mRNA [5]): reduce
nevus color (nevi): spontaneously decolorating
size of the burn scar (burn scar): reduction in size
AKT/mTOR pathway (Western blot) (AKT/mTOR pathway [6]): inhibits
mRNA expression of Tgfβ, a marker of fibrosis (Tgfβ mRNA [1]): reduced
AKT/mTOR pathway (P-AKT and P-S6RP in WB) (AKT/mTOR pathway [2]): efficiently block
proliferation [3]: reduced
